Reference: patent US20100145901A1, “MATRIX MARKER MODEL AND METHODS FOR ASSESSING AND TREATING ARTHRITIS AND RELATED DISORDERS” (priority 2007, published 2010)

How the values were obtained:
RA patients = details: 25 studies, 3907 RA patients; cited from earlier work
patients with active RA = assay: ASPIRE trial: joint damage progression (modified Sharp/van der Heijde score) baseline to week 54; type: in vivo, human
Method: Details on the patient population and study protocol on which we have tested our model have been presented previously (StClair et al. Arthritis Rheum 2004; 50:3432-3443). […] In addition, patients had >=10 swollen joints (66 joint count), >=12 tender joints (68 joint count), and >=1 of the following: rheumatoid factor (RF) positivity, radiographic erosions of the hands or feet, or serum C-reactive protein (CRP) level >=2.0 mg/dl.
The institutional review boards at participating sites approved the study protocol. All patients provided written informed consent. Patients were randomized in a 4:5:5 ratio to receive placebo, infliximab 3 mg/kg, or infliximab 6 mg/kg at weeks 0, 2, and 6, and then every 8 weeks through week 46. All patients were treated with oral MTX starting at 7.5 mg/week at week 0; MTX doses were increased by 2.5 mg every 1-2 weeks to reach 15 mg/week by week 4 and 20 mg/week by week 8. MTX was administered to all patients through week 54. Patients also received folic acid >=5 mg/week.
The American College of Rheumatology core set variables (Felson A&R 1993), including numbers of tender and swollen joints, were documented at each visit. The 28 joint count (Prevoo A&R 1995) was used in the creation of our model as it is more appropriate and more frequently used in daily clinical practice as compared to the 66/68 count. The Westergren method (Koepke 1988) was used to determine erythrocyte sedimentation rate (ESR) at weeks 0, 6, 30, and 54; normal ESR levels were <=20 mm/hour for women and <=15 mm/hour for men. CRP levels (normal <0.8 mg/dl) were measured by nephelometry (Stites 1997) at screening and each visit thereafter. (If possible RF testing should be specified as different IG's tested for have different correlation with radiological progression. Radiographs of the hands and feet were obtained within 4 weeks of receiving the first dose of the study drug, at weeks 30 and 54, and upon use of a protocol-prohibited medication or study termination, as applicable. Joint damage was assessed by change in the modified Sharp/van der Heijde score (SHS) (vander Heijde Lancet 1989) from baseline to week 54.
Of the 1,049 patients enrolled in the ASPIRE trial, 1,004 were prospectively identified as eligible for inclusion in the efficacy analyses prior to unblinding (StClair A&R 2004). […] Summary statistics of median, mean, and interquartile ranges are presented for continuous variables. Spearman correlation analyses were performed to evaluate the association between baseline covariates and changes in radiographic scores. Tests for statistical significance were performed using analysis of variance on van der Waerden normal scores. For categorical response parameters, treatment group comparisons were made using the chi-square test. […]

Compound | change in erosion scores versus placebo (RA patients) | also measured
Cc1oncc1C(=O)Nc1ccc(C(F)(F)F)cc1 [leflunomide] | statistically better than placebo | 
CN(Cc1cnc2nc(N)nc(N)c2n1)c1ccc(C(=O)N[C@@H](CCC(=O)O)C(=O)O)cc1 [MTX, methotrexate] | statistically better than placebo | change in the SHS from baseline to week 54 (mean+/−SD) (patients with active RA; MTX alone): 3.7+/−9.6; patients showing an increase in radiographic score (patients with active RA; baseline to week 54): 61%; patients showing an increase of radiographic score of at least 5 SHS units (patients with active RA; baseline to week 54): 23%; patients with SHS of 0 at baseline who did not progress (patients with active RA; baseline to week 54): 63%
O=C(O)c1cc(/N=N/c2ccc(S(=O)(=O)Nc3ccccn3)cc2)ccc1O [SSZ, sulphasalazine] | statistically better than placebo | 
infliximab | statistically better than placebo | rank versus other agents in preventing radiological progression (RA patients): superior to the last five agents
CC(=O)OC[C@H]1O[C@@H]([S-])[C@H](OC(C)=O)[C@@H](OC(C)=O)[C@@H]1OC(C)=O.CCP(CC)CC.[Au+] [auranofin] | statistically better than placebo | 
interleukin 1 receptor antagonist: interleukin 1 receptor antagonist | statistically better than placebo | 
